Data from US7259153B2, “Drug formulation and delivery using crystalline methylated cyclodextrins” (Supernus Pharmaceuticals, priority 2003, dated 2007).
Converted amounts (≈) assume the structure as drawn. Where two headings read alike, the source gives them in different places. One block for each compound: values may come before it.

How the values were obtained:
[1] = Equilibrium solubility of drug substance in media with solubilizer (excess drug, rotated 48 hours at room temperature, filtered, HPLC); assay type: physicochemical; details: for solubility enhancement ratio: vs vehicle alone; for solubility at 48 h: thermodynamic from solid
Procedure: An excess of drug substance was added to 20 ml glass liquid scintillation vials (Kimble Glass Inc., Vineland, N.J.) containing 10 ml of the media with a specific amount of solubilizer. […] The samples were filtered through a 0.45 μm filter (Acrodisc CR PTFE membrane filter, Gelman Sciences, Ann Arbor, Mich.). After discarding the first mL of the filtrates to eliminate any membrane adsorptive effect, the filtrates were collected for high-performance liquid chromatography (HPLC) analysis for drug concentration.

[2] = set by the WHO; cited from earlier work
[3] = water; cited from earlier work
[4] = Water solubility of the cyclodextrin itself; assay type: physicochemical; details: room temperature
[5] = Stability of crystalline methylated β-cyclodextrin against heat and humidity; assay type: physicochemical
[6] = 2% (w/v) Cryst. Methylated β-CD, aqueous
[7] = 2% (w/v) HP-β-cyclodextrin, aqueous
[8] = 5% (w/v) Cryst. Methylated β-CD, aqueous
[9] = 5% (w/v) HP-β-cyclodextrin, aqueous
[10] = 10% (w/v) Cryst. Methylated β-CD, aqueous
[11] = 10% (w/v) HP-β-cyclodextrin, aqueous

Compound: NC(=O)N1c2ccccc2C=Cc2ccccc21 [Carbamazepine]
- solubility enhancement ratio ([1]; 1% (w/v) β-Cyclodextrin, aqueous): 5.9
- solubility at 48 h ([1]; 1% (w/v) β-cyclodextrin in water, aqueous with cosolvent or surfactant or cyclodextrin, 1% (w/v) β-Cyclodextrin, aqueous, read-out: Carbamazepine Solubility): 669 µg/mL (≈ 2.83 mM)
- solubility at 48 h ([1]; 2% (w/v) Cavasol W7M in water, aqueous with cosolvent or surfactant or cyclodextrin, 2% (w/v) Cavasol W7M, aqueous, read-out: Carbamazepine Solubility): 1070 µg/mL (≈ 4.52 mM)
- solubility enhancement ratio ([1]; 2% (w/v) Cavasol W7M, aqueous): 9.5
- solubility enhancement ratio [1, 6]: 13.7
- solubility at 48 h ([1]; 2% (w/v) HP-β-cyclodextrin in water, aqueous with cosolvent or surfactant or cyclodextrin, 2% (w/v) HP-β-cyclodextrin, aqueous, read-out: Carbamazepine Solubility): 1240 µg/mL (≈ 5.26 mM)
- solubility enhancement ratio [1, 7]: 11.0
- solubility at 48 h ([1]; 2% (w/v) crystalline methylated β-cyclodextrin in water, aqueous with cosolvent or surfactant or cyclodextrin, 2% (w/v) Cryst. Methylated β-CD, aqueous, read-out: Carbamazepine Solubility): 1540 µg/mL (≈ 6.53 mM)
- solubility enhancement ratio ([1]; 2% (w/v) β-Cyclodextrin, aqueous): 10.5
- solubility at 48 h ([1]; 2% (w/v) β-cyclodextrin in water, aqueous with cosolvent or surfactant or cyclodextrin, 2% (w/v) β-Cyclodextrin, aqueous, read-out: Carbamazepine Solubility): 1190 µg/mL (≈ 5.02 mM)
- solubility at 48 h ([1]; 5% (w/v) Cavasol W7M in water, aqueous with cosolvent or surfactant or cyclodextrin, 5% (w/v) Cavasol W7M, aqueous, read-out: Carbamazepine Solubility): 2580 µg/mL (≈ 10.9 mM)
- solubility enhancement ratio ([1]; 5% (w/v) Cavasol W7M, aqueous): 22.8
- solubility enhancement ratio [1, 8]: 31.8
- solubility at 48 h ([1]; 5% (w/v) HP-β-cyclodextrin in water, aqueous with cosolvent or surfactant or cyclodextrin, 5% (w/v) HP-β-cyclodextrin, aqueous, read-out: Carbamazepine Solubility): 2880 µg/mL (≈ 12.2 mM)
- solubility enhancement ratio [1, 9]: 25.4
- solubility at 48 h ([1]; 5% (w/v) crystalline methylated β-cyclodextrin in water, aqueous with cosolvent or surfactant or cyclodextrin, 5% (w/v) Cryst. Methylated β-CD, aqueous, read-out: Carbamazepine Solubility): 3590 µg/mL (≈ 15.2 mM)
- solubility at 48 h ([1]; 7.5% (w/v) Cavasol W7M in water, aqueous with cosolvent or surfactant or cyclodextrin, 7.5% (w/v) Cavasol W7M, aqueous, read-out: Carbamazepine Solubility): 3760 µg/mL (≈ 15.9 mM)
- solubility enhancement ratio ([1]; 7.5% (w/v) Cavasol W7M, aqueous): 33.3
- solubility enhancement ratio ([1]; 7.5% (w/v) Cryst. Methylated β-CD, aqueous): 47.5
- solubility at 48 h ([1]; 7.5% (w/v) HP-β-cyclodextrin in water, aqueous with cosolvent or surfactant or cyclodextrin, 7.5% (w/v) HP-β-cyclodextrin, aqueous, read-out: Carbamazepine Solubility): 4870 µg/mL (≈ 20.6 mM)
- solubility enhancement ratio ([1]; 7.5% (w/v) HP-β-cyclodextrin, aqueous): 43.1
- solubility at 48 h ([1]; 7.5% (w/v) crystalline methylated β-cyclodextrin in water, aqueous with cosolvent or surfactant or cyclodextrin, 7.5% (w/v) Cryst. Methylated β-CD, aqueous, read-out: Carbamazepine Solubility): 5370 µg/mL (≈ 22.7 mM)
- solubility at 48 h ([1]; 10% (w/v) Cavasol W7M in water, aqueous with cosolvent or surfactant or cyclodextrin, 10% (w/v) Cavasol W7M, aqueous, read-out: Carbamazepine Solubility): 5250 µg/mL (≈ 22.2 mM)
- solubility enhancement ratio ([1]; 10% (w/v) Cavasol W7M, aqueous): 46.4
- solubility enhancement ratio [1, 10]: 61.6
- solubility at 48 h ([1]; 10% (w/v) HP-β-cyclodextrin in water, aqueous with cosolvent or surfactant or cyclodextrin, 10% (w/v) HP-β-cyclodextrin, aqueous, read-out: Carbamazepine Solubility): 6020 µg/mL (≈ 25.5 mM)
- solubility enhancement ratio [1, 11]: 53.3
- solubility at 48 h ([1]; 10% (w/v) crystalline methylated β-cyclodextrin in water, aqueous with cosolvent or surfactant or cyclodextrin, 10% (w/v) Cryst. Methylated β-CD, aqueous, read-out: Carbamazepine Solubility): 6960 µg/mL (≈ 29.5 mM)
- solubility at 48 h ([1]; 20% (w/v) Cavasol W7M in water, aqueous with cosolvent or surfactant or cyclodextrin, 20% (w/v) Cavasol W7M, aqueous, read-out: Carbamazepine Solubility): 10900 µg/mL (≈ 46.2 mM)
- solubility enhancement ratio ([1]; 20% (w/v) Cavasol W7M, aqueous): 96.5
- solubility enhancement ratio ([1]; 20% (w/v) Cryst. Methylated β-CD, aqueous): 132.4
- solubility at 48 h ([1]; 20% (w/v) HP-β-cyclodextrin in water, aqueous with cosolvent or surfactant or cyclodextrin, 20% (w/v) HP-β-cyclodextrin, aqueous, read-out: Carbamazepine Solubility): 10700 µg/mL (≈ 45.3 mM)
- solubility enhancement ratio ([1]; 20% (w/v) HP-β-cyclodextrin, aqueous): 94.8
- solubility at 48 h ([1]; 20% (w/v) crystalline methylated β-cyclodextrin in water, aqueous with cosolvent or surfactant or cyclodextrin, 20% (w/v) Cryst. Methylated β-CD, aqueous (heating to dissolve CD), read-out: Carbamazepine Solubility): 15000 µg/mL (≈ 63.3 mM)
- solubility at 48 h ([1]; PEG 400, organic solvent or mixture, vehicle: PEG 400, read-out: Carbamezepine Solubility): 77900 µg/mL (≈ 330 mM)
- solubility at 48 h ([1]; Transcutol, organic solvent or mixture, vehicle: Transcutol, read-out: Carbamezepine Solubility): 78100 µg/mL (≈ 331 mM)
- carbamazepine solubility in propylene glycol relative to aqueous solubility ([1]; propylene glycol vs water): about 310 fold
- solubility at 48 h ([1]; propylene glycol, organic solvent or mixture, vehicle: Propylene Glycol, read-out: Carbamezepine Solubility): 35300 µg/mL (≈ 150 mM)
- Carbamazepine Solubility ([1]; water, 0% (w/v) cyclodextrin): 113 µg/mL

Compound: CC(O)CO (centres unmarked) [propylene glycol]
- acceptable daily intake [2]: up to 25 mg/kg body weight

Compound: OC[C@H]1O[C@@H]2O[C@H]3[C@H](O)[C@@H](O)[C@@H](O[C@H]4[C@H](O)[C@@H](O)[C@@H](O[C@H]5[C@H](O)[C@@H](O)[C@@H](O[C@H]6[C@H](O)[C@@H](O)[C@@H](O[C@H]7[C@H](O)[C@@H](O)[C@@H](O[C@H]8[C@H](O)[C@@H](O)[C@@H](O[C@H]1[C@H](O)[C@H]2O)O[C@@H]8CO)O[C@@H]7CO)O[C@@H]6CO)O[C@@H]5CO)O[C@@H]4CO)O[C@@H]3CO [β-cyclodextrin]
- aqueous solubility [3]: 1.8 % w/v

The next lines start with the values.

- solubility at 48 h ([1]; 1% (w/v) Cavasol W7M, aqueous, aqueous with cosolvent or surfactant or cyclodextrin, 1% (w/v) Cavasol W7M, aqueous, read-out: Oxcarbazepine Solubility): 150 µg/mL (≈ 0.595 mM)
- solubility enhancement ratio ([1]; 1% (w/v) Cavasol W7M, aqueous): 2.1
- solubility at 48 h ([1]; 1% (w/v) Cryst. Methylated β-CD, aqueous, aqueous with cosolvent or surfactant or cyclodextrin, 1% (w/v) Cryst. Methylated β-CD, aqueous, read-out: Oxcarbazepine Solubility): 230 µg/mL (≈ 0.912 mM)
- solubility enhancement ratio ([1]; 1% (w/v) Cryst. Methylated β-CD, aqueous): 3.3
- solubility at 48 h ([1]; 1% (w/v) HP-β-cyclodextrin, aqueous, aqueous with cosolvent or surfactant or cyclodextrin, 1% (w/v) HP-β-cyclodextrin, aqueous, read-out: Oxcarbazepine Solubility): 130 µg/mL (≈ 0.515 mM)
- solubility enhancement ratio ([1]; 1% (w/v) HP-β-cyclodextrin, aqueous): 1.9
- solubility at 48 h ([1]; 1% (w/v) Tween 80, aqueous, aqueous with cosolvent or surfactant or cyclodextrin, 1% (w/v) Tween 80, aqueous, read-out: Oxcarbazepine Solubility): 120 µg/mL (≈ 0.476 mM)
- solubility enhancement ratio ([1]; 1% (w/v) Tween 80, aqueous): 1.7
- solubility at 48 h ([1]; 2% (w/v) Cavasol W7M, aqueous, aqueous with cosolvent or surfactant or cyclodextrin, 2% (w/v) Cavasol W7M, aqueous, read-out: Oxcarbazepine Solubility): 240 µg/mL (≈ 0.951 mM)
- solubility enhancement ratio ([1]; 2% (w/v) Cavasol W7M, aqueous): 3.4
- solubility at 48 h ([1]; 2% (w/v) Cryst. Methylated β-CD, aqueous, aqueous with cosolvent or surfactant or cyclodextrin, 2% (w/v) Cryst. Methylated β-CD, aqueous, read-out: Oxcarbazepine Solubility): 310 µg/mL (≈ 1.23 mM)
- solubility enhancement ratio [1, 6]: 4.4
- solubility at 48 h ([1]; 2% (w/v) HP-β-cyclodextrin, aqueous, aqueous with cosolvent or surfactant or cyclodextrin, 2% (w/v) HP-β-cyclodextrin, aqueous, read-out: Oxcarbazepine Solubility): 190 µg/mL (≈ 0.753 mM)
- solubility enhancement ratio [1, 7]: 2.7
- solubility at 48 h ([1]; 2% (w/v) Tween 80, aqueous, aqueous with cosolvent or surfactant or cyclodextrin, 2% (w/v) Tween 80, aqueous, read-out: Oxcarbazepine Solubility): 170 µg/mL (≈ 0.674 mM)
- solubility enhancement ratio ([1]; 2% (w/v) Tween 80, aqueous): 2.4
- solubility enhancement ratio ([1]; 5% (w/v) Cavasol W7M, aqueous): 7.0
- solubility enhancement ratio [1, 8]: 11.7
- solubility enhancement ratio [1, 9]: 4.9
- solubility at 48 h ([1]; 5% (w/v) Tween 80, aqueous, aqueous with cosolvent or surfactant or cyclodextrin, 5% (w/v) Tween 80, aqueous, read-out: Oxcarbazepine Solubility): 290 µg/mL (≈ 1.15 mM)
- solubility enhancement ratio ([1]; 5% (w/v) Tween 80, aqueous): 4.1
- solubility enhancement ratio ([1]; 10% (w/v) Cavasol W7M, aqueous): 9.6
- solubility enhancement ratio [1, 10]: 21.3
- solubility enhancement ratio [1, 11]: 9.6
- solubility enhancement ratio ([1]; 10% (w/v) Tween 80, aqueous): 7.1
- solubility at 48 h ([1]; aqueous media with solubilizer, aqueous with cosolvent or surfactant or cyclodextrin, 5% (w/v) Cavasol W7M, aqueous, read-out: Oxcarbazepine Solubility): 490 µg/mL (≈ 1.94 mM)
- solubility at 48 h ([1]; aqueous media with solubilizer, aqueous with cosolvent or surfactant or cyclodextrin, 5% (w/v) Cryst. Methylated β-CD, aqueous, read-out: Oxcarbazepine Solubility): 820 µg/mL (≈ 3.25 mM)
- solubility at 48 h ([1]; aqueous media with solubilizer, aqueous with cosolvent or surfactant or cyclodextrin, 5% (w/v) HP-β-cyclodextrin, aqueous, read-out: Oxcarbazepine Solubility): 340 µg/mL (≈ 1.35 mM)
- solubility at 48 h ([1]; aqueous media with solubilizer, aqueous with cosolvent or surfactant or cyclodextrin, 10% (w/v) Cavasol W7M, aqueous, read-out: Oxcarbazepine Solubility): 670 µg/mL (≈ 2.66 mM)
- solubility at 48 h ([1]; aqueous media with solubilizer, aqueous with cosolvent or surfactant or cyclodextrin, 10% (w/v) Cryst. Methylated β-CD, aqueous, read-out: Oxcarbazepine Solubility): 1490 µg/mL (≈ 5.91 mM)
- solubility at 48 h ([1]; aqueous media with solubilizer, aqueous with cosolvent or surfactant or cyclodextrin, 10% (w/v) HP-β-cyclodextrin, aqueous, read-out: Oxcarbazepine Solubility): 670 µg/mL (≈ 2.66 mM)
- solubility at 48 h ([1]; aqueous media with solubilizer, aqueous with cosolvent or surfactant or cyclodextrin, 10% (w/v) Tween 80, aqueous, read-out: Oxcarbazepine Solubility): 500 µg/mL (≈ 1.98 mM)
- Oxcarbazepine Solubility ([1]; water, 0% (w/v) solubilizer): 70 µg/mL
- solubility at 48 h ([1]; water, water, 0% (w/v) solubilizer, read-out: Oxcarbazepine Solubility): 70 µg/mL (≈ 0.277 mM)
Compound: NC(=O)N1c2ccccc2CC(=O)c2ccccc21 [Oxcarbazepine]

- water solubility [4]: around 15%
- stability against heat and humidity [5]: stable against heat and humidity
Compound: crystalline methylated β-cyclodextrin
